Assay results taken from PMC5007854, “β-Nitrostyrenes as Potential Anti-leishmanial Agents” (Frontiers in Microbiology, 2016).
Converted amounts (≈) assume the structure as drawn.

Key:
Type in all cases: cell-based
[1] = tested on: Candida glabrata ATCC 90030; assay: Broth microdilution antifungal susceptibility (MIC/MFC); settings: Nakaseomyces glabratus; for MIC: ATCC90030, 48 h, broth microdilution, 35°C, 48 h, read-out: MIC, Cg ATCC 90030; for MFC: ATCC90030, ≥99.9% reduction of original inoculum, read-out: MFC, Cg ATCC 90030
Text: (§1) One reference each of the following species was used for their in vitro susceptibility to β-nitrostyrene in this study: Staphylococcus aureus ATCC 29213, Staphylococcus epidermidis ATCC 14990, Escherichia coli ATCC 25922, Pseudomonas aeruginosa ATCC 27853, Candida albicans ATCC 90028, Candida glabrata ATCC 90030, Aspergillus fumigatus ATCC 16424 and Aspergillus niger ATCC 16404. These strains were procured from the American Type Culture Collection (ATCC, Manassas, VA, USA).
(§2) The antibacterial and antifungal activities of the β-nitrostyrenes were performed by broth microdilution methods as per the guidelines of Clinical and Laboratory Standard Institute (Wayne, [1998], [2008a],[b],[c]) by using Mueller-Hinton broth (MHB; Becton-Dickinson, Cockeysville, MD, USA) supplemented with calcium (25 mg/L) and magnesium (12.5 mg/L) for bacterial strains while as RPMI 1640 medium with L-glutamine and without sodium bicarbonate, buffered to pH 7.0 with 0.165 M 3-(N-morpholino) propanesulfonic acid (MOPS; both from Sigma) was used for fungal strains. Stock solutions were prepared in 100% dimethyl sulfoxide (DMSO; Sigma; distilled water was used for ciprofloxacin), with a final DMSO concentration of 1% (vol. per vol.) and two-fold serial dilutions were prepared in media in amounts of 100 μL per well in 96-well U-bottom microtiter plates (Tarsons, Kolkata, India) to yield twice the final concentration required for testing, which ranged from 64 to 0.12 μg/mL for β-nitrostyrenes and 16 to 0.03 μg/mL for ciprofloxacin as well as amphotericin B. Stock inoculum suspensions of the bacteria, Candida species and Aspergillus species were prepared in sterile normal saline (0.85%) containing 0.05% polysorbate 20 (NST) from overnight (3 to 5-day old for Aspergillus species) strains grown on Trypticase soy agar (TSA; Becton-Dickinson) and potato dextrose agar (Difco Laboratories, Detroit, MI, USA) respectively at 35°C. Inocula were verified for each assay by plating onto agar plates for colony enumeration. These suspensions were further diluted in the respective test medium and a 100 μl volume of this diluted inoculum was added to each well of the plate, resulting in a final inoculum concentration of approximately 5 × 10^5 CFU/mL for bacter1ia, (Wayne, [2008a]) approximately 2.5 × 10^4 CFU/ml for Candida species (Pfaller et al., [2004]) while as 0.4 × 10^4 to 5 × 10^4 CFU/mL for Aspergillus species (Wayne, [2008c]). Untreated growth control, vehicle control (DMSO) and sterility control wells were included for each isolate tested. Ciprofloxacin and amphotericin B served as the standard drug controls for bacterial and fungal strains, respectively. The microtiter plates were incubated at 35°C for 24 h for bacterial strains and 48 h for fungal strains. The plates were read visually and the minimum inhibitory concentration (MIC) was defined as the lowest concentration of test sample that prevented visible growth with respect to the growth control.
(§3) The minimum bactericidal concentration (MBC) and minimum fungicidal concentration (MFC) were determined by plating 100 μl volumes on agar plates from the wells showing no visible growth (clear MIC well). The plates were incubated as described above in MIC measurements. […] All experiments were conducted twice in duplicates on separate occasions with freshly prepared inoculums and stock solutions.

[2] = tested on: Candida albicans ATCC 90028; assay: as above; settings: Candida albicans; for MIC: ATCC90028, 48 h, broth microdilution, 35°C, 48 h, read-out: MIC, Ca ATCC 90028; for MFC: ATCC90028, ≥99.9% reduction of original inoculum, read-out: MFC, Ca ATCC 90028
Text: as §1, §2, §3

[3] = tested on: Aspergillus fumigatus ATCC 16424; assay: as above; settings: Aspergillus fumigatus; for MIC: ATCC16424, 48 h, broth microdilution, 35°C, 48 h, read-out: MIC, Af ATCC 16424; for MFC: ATCC16424, ≥99.9% reduction of original inoculum, read-out: MFC, Af ATCC 16424
Text: as §1, §2, §3

[4] = tested on: Aspergillus niger ATCC 16404; assay: as above; settings: Aspergillus niger; for MIC: ATCC16404, 48 h, broth microdilution, 35°C, 48 h, read-out: MIC, An ATCC 16404; for MFC: ATCC16404, ≥99.9% reduction of original inoculum, read-out: MFC, An ATCC 16404
Text: as §1, §2, §3

[5] = tested on: Pseudomonas aeruginosa ATCC 27853; assay: Broth microdilution antibacterial susceptibility (MIC/MBC); settings: Pseudomonas aeruginosa; for MIC: ATCC27853, 24 h, broth microdilution, 35°C, 24 h, read-out: MIC, Pa ATCC 27853; for MBC: ATCC27853, ≥99.9% reduction of original inoculum, read-out: MBC, Pa ATCC 27853
Text: as §1, §2, §3

[6] = tested on: Staphylococcus aureus ATCC 29213; assay: as above; settings: for MIC / MBC: Staphylococcus aureus; for MIC: ATCC29213, 24 h, read-out: MIC, Sa ATCC 29213; for MBC: ATCC29213, ≥99.9% reduction of original inoculum, read-out: MBC, Sa ATCC 29213
Text: as §1, §2, §3

[7] = tested on: Escherichia coli ATCC 25922; assay: as above; settings: Escherichia coli; for MIC: ATCC25922, 24 h, broth microdilution, 35°C, 24 h, read-out: MIC, Ec ATCC 25922; for MBC: ATCC25922, ≥99.9% reduction of original inoculum, read-out: MBC, Ec ATCC 25922
Text: as §1, §2, §3

[8] = tested on: Staphylococcus epidermidis ATCC 14990; assay: as above; settings: for MIC / MBC: Staphylococcus epidermidis; for MIC: ATCC14990, 24 h, read-out: MIC, Se ATCC 14990; for MBC: ATCC14990, ≥99.9% reduction of original inoculum, read-out: MBC, Se ATCC 14990
Text: as §1, §2, §3

[9] = broth microdilution, 35°C, 24 h

| SMILES | MIC [1] [µg/mL] | MFC [1] [µg/mL] | MIC [2] [µg/mL] | MFC [2] [µg/mL] | MIC [3] [µg/mL] | MFC [3] [µg/mL] | MIC [4] [µg/mL] | MFC [4] [µg/mL] | MIC [5] [µg/mL] | MBC [5] [µg/mL] | MIC [6, 9] [µg/mL] | MBC [6] [µg/mL] | MIC [7] [µg/mL] | MBC [7] [µg/mL] | MIC [8, 9] [µg/mL] | MBC [8] [µg/mL] | MIC, Sa ATCC 29213 [6, 9] [µg/mL] | MIC, Se ATCC 14990 [8, 9] [µg/mL] |
| --- | --- | --- | --- | --- | --- | --- | --- | --- | --- | --- | --- | --- | --- | --- | --- | --- | --- | --- |
| CC/C(=C\c1ccc(N(C)C)cc1)[N+](=O)[O-] [Compound 6, N,N-dimethyl-4-((E)-2-nitrobut-1-enyl) benzenamine] | 32 (≈ 145 µM) | 32 (≈ 145 µM) | > 64 | > 64 | > 64 | > 64 | 64 (≈ 291 µM) | > 64 | > 64 | > 64 | > 64 | > 64 | > 64 | > 64 | > 64 | > 64 | – | – |
| CC/C(=C\c1ccc(Cl)cc1)[N+](=O)[O-] [Compound 3, 1-chloro-4-((E)-2-nitrobut-1-enyl) benzene] | – | > 64 | – | > 64 | – | 64 (≈ 302 µM) | – | 32 (≈ 151 µM) | – | > 64 | 2 to 32 (≈ 9.45 to 151 µM) | 4 (≈ 18.9 µM) | – | > 64 | 2 to 16 (≈ 9.45 to 75.6 µM) | 2 (≈ 9.45 µM) | 4 (≈ 18.9 µM) | 2 (≈ 9.45 µM) |
| CN(C)c1ccc(/C=C/[N+](=O)[O-])cc1 [Compound 4, N,N-dimethyl-4-((E)-2-nitrovinyl) benzenamine] | 32 (≈ 166 µM) | 32 (≈ 166 µM) | > 64 | > 64 | 64 (≈ 333 µM) | > 64 | 64 (≈ 333 µM) | > 64 | > 64 | > 64 | > 64 | > 64 | > 64 | > 64 | > 64 | > 64 | – | – |
| O=[N+]([O-])/C=C/c1ccc(O)cc1 [Compound 16, 4-((E)-2-nitrovinyl) phenol] | 16 (≈ 96.9 µM) | 16 (≈ 96.9 µM) | 32 (≈ 194 µM) | 32 (≈ 194 µM) | 16 (≈ 96.9 µM) | 16 (≈ 96.9 µM) | 8 (≈ 48.4 µM) | 16 (≈ 96.9 µM) | > 64 | > 64 | 64 (≈ 388 µM) | > 64 | 64 (≈ 388 µM) | > 64 | 64 (≈ 388 µM) | 64 (≈ 388 µM) | – | – |
| O=[N+]([O-])/C=C/c1c[nH]c2ccccc12 [Compound 28, 3-((E)-2-nitrovinyl)-1H-indole] | 16 (≈ 85 µM) | 16 (≈ 85 µM) | 32 (≈ 170 µM) | 32 (≈ 170 µM) | 16 (≈ 85 µM) | 16 (≈ 85 µM) | 8 (≈ 42.5 µM) | 16 (≈ 85 µM) | > 64 | > 64 | 64 (≈ 340 µM) | > 64 | 64 (≈ 340 µM) | > 64 | 64 (≈ 340 µM) | 64 (≈ 340 µM) | – | – |
